Reference: patent US20070292403A1, “Methods of treating a neurological disorder with creatine monohydrate” (priority 2006, published 2007)
Entries after “also recorded” stand apart in the source; their conditions may differ.

Legend:
[1] = test system: subjects with early Parkinson's disease (PD); assay: Example 2: randomized double-blind futility trial, change in total UPDRS; assay type: in vivo, human; settings: baseline to 12 months or time symptomatic therapy needed; creatine 10 g/day, minocycline 200 mg/day; worst change score imputed
Experimental: (§1) Study Design and Randomization. This example was a single arm futility study designed to assess creatine and minocycline. A placebo arm for calibration was included in the example. Eligible subjects were randomly assigned in a 1:1:1 fashion to receive 1) 10 g/day of creatine monohydrate and placebo minocycline, 2) placebo creatine monohydrate and 200 mg/day of minocycline, or 3) placebo creatine monohydrate and placebo minocycline. The primary futility analysis was at 12 months of follow-up, but each subject was followed for 18 months for additional safety information. Subjects and investigators were kept blinded to treatment group.
Participants. […] Two of the three cardinal manifestations of PD (tremor, rigidity, and bradykinesia) were required; these findings had to be asymmetric. The diagnosis of PD must have been made within 5 years of randomization. Women of childbearing potential were required to use adequate birth control and have a negative pregnancy test at baseline. Subjects were excluded if they had any secondary causes of parkinsonism, such as drug induced parkinsonism or structural lesions; had atypical parkinsonian syndromes; gait freezing or impairment in postural reflexes; had prior stereotaxis surgery for PD; used creatine, minocycline, or any investigational agent within 90 days prior to randomization; had known hypersensitivity to creatine or minocycline; used CoQ10 in doses greater than 300 mg 90 days prior to randomization; or had any clinically significant medical condition that could interfere with the subject's ability to safely participate in the study or be followed.
(§2) Dosages. Creatine was administered as 5 g sachets mixed with 8 ounces of liquid taken twice a day and minocycline was administered as 100 mg capsules taken twice a day. Both were taken with meals.
Outcome measures. […] Disability was assessed by the sight investigator, based on impairment in ambulation, activities in daily living, and occupational status. […] Both the site investigator and medical monitors assessed the potential relationship between SAEs and study drug. […]

[2] = test system: subjects with early Parkinson's disease (PD); assay: Example 2: safety and tolerability in the early Parkinson's disease trial; assay type: in vivo, human
Experimental: as §1, §2
Outcome measures. The primary, prespecified outcome measure was the change in the total Unified PD Rating Scale (UPDRS) score from baseline to either the time at which there was sufficient disability to warrant symptomatic therapy for PD or 12 months, whichever came first. Disability was assessed by the sight investigator, based on impairment in ambulation, activities in daily living, and occupational status. The mean change in total UPDRS for each treatment group was compared to a prespecified futility threshold of a 30% reduction in the historically derived change in the total UPDRS, which was based on a placebo arm of a previous clinical trial. Tolerability was defined as the proportion of subjects taking study drug for the full 12 months. All […] adverse events (SAEs) were reviewed by the study medical monitor and an independent medical monitor. Both the site investigator and medical monitors assessed the potential relationship between SAEs and study drug.
Study Procedures. At the screening visit, the purpose and potential risks were explained to potential subjects and each subject gave written consent. […] Blood was obtained for serum chemistry and complete blood count. Participants were reevaluated at 1, 3, 6, 9, and 12 months (±6 days) after the baseline visit using the battery of clinical scales and blood was drawn again at 6 and 12 months.

CN(C)c1ccc(O)c2c1C[C@H]1C[C@H]3[C@H](N(C)C)C(O)=C(C(N)=O)C(=O)[C@@]3(O)C(O)=C1C2=O [Minocycline, minocycline]
Mean (SD) change in total UPDRS [1]: 7.09 (8.71)
SAEs occurring during the study ([2]; creatine 10 g/day, minocycline 200 mg/day): Six
Tolerability ([2]; creatine 10 g/day, minocycline 200 mg/day, 12 months): generally well tolerated; also recorded: less well tolerated than creatine
Patients with dose reductions ([2]; human, in vivo): 15
